Measured values published in patent US10786484B2, “Mono- or di-substituted indole derivatives as dengue viral replication inhibitors” (Janssen Pharmaceuticals, Inc., priority 2015, dated 2020).

Legend:
in vitro [1] = settings: African green monkey
[2] = tested on: DENV-2 16681 strain labeled with eGFP; assay: DENV-2 antiviral assay (eGFP fluorescence read-out in Vero cells); format: cell-based, Dengue virus; settings: DENV-2 16681 eGFP, MOI 0.5, 3 days
Experimental: The antiviral activity of all the compounds of the invention was tested against the DENV-2 16681 strain which was labeled with enhanced green fluorescent protein (eGPF). The culture medium consists of minimal essential medium supplemented with 2% of heat-inactivated fetal calf serum, 0.04% gentamycin (50 mg/mL) and 2 mM of L-glutamine. Vero cells, obtained from ECACC, were suspended in culture medium and 25 μL was added to 384-well plates (2500 cells/well), which already contain the antiviral compounds. Typically, these plates contain a 5-fold serial dilution of 9 dilution steps of the test compound at 200 times the final concentration in 100% DMSO (200 nL). […] Finally, each plate contains wells which are assigned as virus controls (containing cells and virus in the absence of compound), cell controls (containing cells in the absence of virus and compound) and medium controls (containing medium in the absence of cells, virus and compounds). To the wells assigned as medium control, 25 μL of culture medium was added instead of Vero cells. Once the cells were added to the plates, the plates were incubated for 30 minutes at room temperature to allow the cells to distribute evenly within the wells. Next, the plates were incubated in a fully humidified incubator (37° C., 5% CO2) until the next day. Then, DENV-2 strain 16681, labeled with eGFP, was added at a multiplicity of infection (MOI) of 0.5. Therefore, 15 μL of virus suspension was added to all the wells containing test compound and to the wells assigned as virus control. In parallel, 15 μL of culture medium was added to the medium and cell controls. Next, the plates were incubated for 3 days in a fully humidified incubator (37° C., 5% CO2). At the day of the read out, the eGFP fluorescence was measured using an automated fluorescence microscope at 488 nm (blue laser). Using an in-house LIMS system, inhibition dose response curves for each compound were calculated and the half maximal effective concentration (EC50) was determined. Therefore, the percent inhibition (I) for every test concentration is calculated using the following formula: I=100*([…])/(SVC−SCC); ST, SCC and SVC are the amount of eGFP signal in the test compound, cell control and virus control wells, respectively. The EC50 represents the concentration of a compound at which the virus replication is inhibited with 50%, as measured by a 50% reduction of the eGFP fluorescent intensity compared to the virus control. The EC50 is calculated using linear interpolation (Table 1).

DENV-4 strain H241 = assay: Tetravalent RT-qPCR assay Protocol A, serotype 4 H241; format: cell-based; settings: Dengue virus, DENV4, 72 h; RT-qPCR serotype 4 H241, Vero cells, day 3
Experimental: (§1) The antiviral activity of the compounds of the invention was tested against DENV-1 strain TC974#666 (NCPV), DENV-2 strain 16681, DENV-3 strain H87 (NCPV) and DENV-4 strains H241 (NCPV) and EDEN (SG/06K2270DK1/2005; GenBank accession number QG398256) in a RT-qPCR assay. Therefore, Vero cells were infected with either DENV-1, or -2, or -3, or -4 in the presence or absence of test compounds. At day 3 post-infection, the cells were lysed and cell lysates were used to prepare cDNA of both a viral target (the 3′UTR of DENV; Table 2) and a cellular reference gene (β-actin, Table 2). Subsequently, a duplex real time PCR was performed on a Lightcycler480 instrument. The generated Cp value is inversely proportional to the amount of RNA expression of these targets. Inhibition of DENV replication by a test compound results in a shift of Cp's for the 3′UTR gene. On the other hand, if a test compound is toxic to the cells, a similar effect on β-actin expression will be observed. The comparative ΔΔCp method is used to calculate EC50, which is based on the relative gene expression of the target gene (3′UTR) normalized with the cellular housekeeping gene (β-actin). In addition, CC50 values are determined based on the Cp values acquired for the housekeeping gene β-actin.
(§2) The culture medium consisted of minimal essential medium supplemented with 2% of heat-inactivated fetal calf serum, 0.04% gentamycin (50 mg/mL) and 2 mM of L-glutamine. Vero cells, obtained from ECACC, were suspended in culture medium and 75 μL/well was added in 96-well plates (10000 cells/well), which already contain the antiviral compounds. […] In addition, each plate contains wells which are assigned as virus controls (containing cells and virus in the absence of compound) and cell controls (containing cells in the absence of virus and compound). Once the cells were added in the plates, the plates were incubated in a fully humidified incubator (37° C., 5% CO2) until the next day. Dengue viruses serotype-1, 2, 3 and 4 were diluted in order to obtain a Cp of ˜22-24 in the assay. Therefore, 25 μL of virus suspension, was added to all the wells containing test compound and to the wells assigned as virus control. In parallel, 25 μL of culture medium was added to the cell controls. Next, the plates were incubated for 3 days in a fully humidified incubator (37° C., 5% CO2). After 3 days, the supernatant was removed from the wells and the cells were washed twice with ice-cold PBS (−100 μL). The cell pellets within the 96-well plates were stored at −80° C. for at least 1 day. Next, RNA was extracted using the Cells-to-CT™ lysis kit, according to the manufacturer's guideline (Life Technologies). The cell lysates can be stored at −80° C. or immediately used in the reverse transcription step.
(§3) In preparation of the reverse transcription step, mix A (table 3A) was prepared and 7.57 μL/well was dispensed in a 96-well plate. After addition of 5 μL of the cell lysates, a five minute denaturation step at 75° C. was performed (table 3B). Afterwards, 7.43 μL of mix B was added (table 3C) and the reverse transcription step was initiated (table 3D) to generate cDNA.
(§4) Finally, a RT-qPCR mix was prepared, mix C (table 4A), and 22.02 μL/well was dispensed in 96-well LightCycler qPCR plates to which 3 μL of cDNA was added and the qPCR was performed according to the conditions in table 4B on a LightCycler 480.
(§5) Using the LightCycler software and an in-house LIMS system, dose response curves for each compound were calculated and the half maximal effective concentration (EC50) and the half maximal cytotoxic concentration (CC50) were determined (Tables 5-8).

DENV-3 strain H87 = assay: Tetravalent RT-qPCR assay Protocol A, serotype 3; format: cell-based; settings: Dengue virus, DENV3, 72 h; RT-qPCR serotype 3 H87, Vero cells, day 3
Experimental: as §1, §2, §3, §4, §5

in vitro [3] = format: cell-based; settings: African green monkey, CC50
Experimental: as §1, §2, §5

DENV-2 strain 16681 = assay: Tetravalent RT-qPCR assay Protocol A, serotype 2; format: cell-based; settings: Dengue virus, DENV2, 72 h; RT-qPCR serotype 2 16681, Vero cells, day 3
Experimental: as §1, §2, §3, §4, §5

Vero cells = settings: African green monkey
DENV-1 strain TC974#666 = assay: Tetravalent RT-qPCR assay Protocol A, serotype 1; format: cell-based; settings: Dengue virus, DENV1, 72 h; RT-qPCR serotype 1 TC974#666, Vero cells, day 3
Experimental: as §1, §2, §3, §4, §5

[4] = Dengue virus, DENV2, Vero, 72 h

In the case of `COc1cc(NC(C(=O)c2c[nH]c3cc(F)ccc23)c2ccc(F)cc2OCCO)cc(S(C)(=O)=O)c1` (racemic) [Compound 1, 1-(6-fluoro-1H-indol-3-yl)-2-(4-fluoro-2-(2-hydroxyethoxy)phenyl)-2-((3-methoxy-5-(methylsulfonyl)phenyl)amino)ethanone], the CC50 (in vitro [1]) is reported as 7600 nM and the EC50 [2, 4] is reported as 1.8 nM.

For `COc1cc(NC(C(=O)c2c[nH]c3cc(Cl)ccc23)c2ccc(F)cc2OCCO)cc(S(C)(=O)=O)c1` (racemic) [Compound 2, 1-(6-chloro-1H-indol-3-yl)-2-(4-fluoro-2-(2-hydroxyethoxy)phenyl)-2-((3-methoxy-5-(methylsulfonyl)phenyl)amino)-ethanone], the CC50 (in vitro [1]) was 6200 nM and the EC50 [2, 4] was 0.81 nM.

For `COc1cc(NC(C(=O)c2c[nH]c3c(C)c(F)ccc23)c2ccc(F)cc2OCCO)cc(S(C)(=O)=O)c1` (racemic) [Compound 3, 2-(4-fluoro-2-(2-hydroxyethoxy)phenyl)-1-(6-fluoro-7-methyl-1H-indol-3-yl)-2-((3-methoxy-5-(methylsulfonyl)phenyl)amino)ethanone], the CC50 (in vitro [1]) was 5100 nM and the EC50 [2, 4] was 1.2 nM.

Molecule `COc1cc(NC(C(=O)c2c[nH]c3c(C)c(Cl)ccc23)c2ccc(F)cc2OCCO)cc(S(C)(=O)=O)c1` (racemic) [Compound 4, 1-(6-chloro-7-methyl-1H-indol-3-yl)-2-(4-fluoro-2-(2-hydroxyethoxy)phenyl)-2-((3-methoxy-5-(methylsulfonyl)phenyl)amino)ethanone] has a CC50 (in vitro [1]) of 3500 nM and an EC50 [2, 4] of 0.37 nM.

`COc1cc(NC(C(=O)c2c[nH]c3cc(F)c(F)cc23)c2ccc(F)cc2OCCO)cc(S(C)(=O)=O)c1` (racemic) [Compound 5, 1-(5,6-difluoro-1H-indol-3-yl)-2-(4-fluoro-2-(2-hydroxyethoxy)phenyl)-2-((3-methoxy-5-(methylsulfonyl)phenyl)-amino)ethanone] gave a CC50 (in vitro [1]) of 6900 nM and an EC50 [2, 4] of 1 nM.

Molecule `COc1cc(NC(C(=O)c2c[nH]c3cc(OC)c(C)cc23)c2ccc(F)cc2OCCO)cc(S(C)(=O)=O)c1` (racemic) [Compound 6, 2-(4-fluoro-2-(2-hydroxyethoxy)phenyl)-2-((3-methoxy-5-(methylsulfonyl)phenyl)amino)-1-(6-methoxy-5-methyl-1H-indol-3-yl)ethanone] has a CC50 (in vitro [1]) of 5800 nM and an EC50 [2, 4] of 1.4 nM.

Work on `COc1cc(NC(C(=O)c2c[nH]c3c(F)cc(C)cc23)c2ccc(F)cc2OCCO)cc(S(C)(=O)=O)c1` (racemic) [Compound 8, 2-(4-fluoro-2-(2-hydroxyethoxy)phenyl)-1-(7-fluoro-5-methyl-1H-indol-3-yl)-2-((3-methoxy-5-(methylsulfonyl)phenyl)amino)ethanone] yielded a CC50 (in vitro [1]) of 6900 nM and an EC50 [2, 4] of 2.3 nM.

With `COc1cc(NC(C(=O)c2c[nH]c3cc(OC)c(OC(F)(F)F)cc23)c2ccc(F)cc2OCCO)cc(S(C)(=O)=O)c1` (racemic) [Compound 11, 2-(4-fluoro-2-(2-hydroxyethoxy)phenyl)-2-((3-methoxy-5-(methyl-sulfonyl)phenyl)amino)-1-(6-methoxy-5-(trifluoromethoxy)-1H-indol-3-yl)ethanone] the CC50 (in vitro [1]) was 9000 nM and the EC50 [2, 4] was 0.48 nM.

For `COc1cc(NC(C(=O)c2c[nH]c3c(C)cc(OC(F)(F)F)cc23)c2ccc(F)cc2OCCO)cc(S(C)(=O)=O)c1` (racemic) [Compound 12, 2-(4-fluoro-2-(2-hydroxyethoxy)phenyl)-2-((3-methoxy-5-(methylsulfonyl)phenyl)amino)-1-(7-methyl-5-(trifluoromethoxy)-1H-indol-3-yl)ethanone], the CC50 (in vitro [1]) was 3700 nM and the EC50 [2, 4] was 0.22 nM.

`COc1cc(NC(C(=O)c2c[nH]c3cc(F)c(C)cc23)c2ccc(F)cc2OCCO)cc(S(C)(=O)=O)c1` (single isomer, unassigned) [Compound 7A, 2-(4-fluoro-2-(2-hydroxyethoxy)phenyl)-1-(6-fluoro-5-methyl-1H-indol-3-yl)-2-((3-methoxy-5-(methylsulfonyl)phenyl)amino)ethanone] showed an EC50 (DENV-4 strain H241) of 120 nM, an EC50 (DENV-3 strain H87) of 20 nM and a CC50 at 3 days (in vitro [3]) of over 2400 nM. The EC50 [2] was 0.54 nM, the EC50 (DENV-2 strain 16681) was 0.77 nM and the CC50 (Vero cells) was 3100 nM. It also gave an EC50 (DENV-1 strain TC974#666) of 1.3 nM.

Work on `COc1cc(NC(C(=O)c2c[nH]c3c(C)cc(Cl)cc23)c2ccc(F)cc2OCCO)cc(S(C)(=O)=O)c1` (single isomer, unassigned) [Compound 9A, 1-(5-chloro-7-methyl-1H-indol-3-yl)-2-(4-fluoro-2-(2-hydroxyethoxy)phenyl)-2-((3-methoxy-5-(methylsulfonyl)phenyl)amino)ethanone] yielded an EC50 (DENV-4 strain H241) of 110 nM, an EC50 (DENV-3 strain H87) of 16 nM and a CC50 at 3 days (in vitro [3]) of over 2500 nM. For the same molecule, the EC50 [2] was 0.39 nM, the EC50 (DENV-2 strain 16681) was 0.61 nM and the CC50 (Vero cells) was 3200 nM. For the same molecule, the EC50 (DENV-1 strain TC974#666) was 1.4 nM.

`COc1cc(NC(C(=O)c2c[nH]c3ccc(OC(F)(F)F)cc23)c2ccc(F)cc2OCCO)cc(S(C)(=O)=O)c1` (single isomer, unassigned) [Compound 10B, 2-(4-fluoro-2-(2-hydroxyethoxy)phenyl)-2-((3-methoxy-5-(methylsulfonyl)phenyl)amino)-1-(5-(trifluoromethoxy)-1H-indol-3-yl)ethanone] gave an EC50 (DENV-4 strain H241) of 12 nM, an EC50 (DENV-3 strain H87) of 2.1 nM and a CC50 at 3 days (in vitro [3]) of over 2500 nM. It also gave an EC50 [2] of 0.12 nM, an EC50 (DENV-2 strain 16681) of 0.057 nM and a CC50 (Vero cells) of 2600 nM. It also gave an EC50 (DENV-1 strain TC974#666) of 0.2 nM.
